Assays:
[1] = system: KB; assay: Resistance factor (RF), ratio between the IC50 on the resistant cells and the IC50 on the corresponding sensitive cells of KB cell line; type: functional, Homo sapiens
[2] = system: L1210; assay: In vitro cytotoxic activity was evaluated using the murine leukemia L1210 cell line; type: functional, cell-based; conditions: Mus musculus
[3] = system: SK-MES-1; assay: Resistance factor (RF), ratio between the IC50 on the resistant cells and the IC50 on the corresponding sensitive cells of MES cell line; type: functional, Homo sapiens
[4] = system: MES-SA; assay: In vitro cytotoxic activity was evaluated using the MES-SA multidrug-resistant subline MES-SA/Dx5; type: functional, cell-based; conditions: Homo sapiens
[5] = system: MES-SA; assay: In vitro cytotoxic activity was evaluated using the human uterine sarcoma cell line MES-SA; type: functional, cell-based
[6] = system: KB; assay: In vitro cytotoxic activity was evaluated using the KB-3-1 resistant to adriamycin (ADR) subline KB-A1; type: functional, cell-based; conditions: Homo sapiens
[7] = system: KB 3-1; assay: In vitro cytotoxic activity was evaluated using the human epidermoid carcinoma cell line KB-3-1; type: functional, cell-based

Row | Structure (SMILES) | Resistance factor [1] | IC50 [2] | Resistance factor [3] | IC50 [4] | IC50 [5] | IC50 [6] | IC50 [7]
1 | COc1cccc2c1C(=O)c1c(O)c3c(c(O)c1C2=O)C[C@@](O)(C(=O)CO)C[C@@H]3O[C@H]1C[C@H](N)[C@H](O)[C@H](C)O1 [DOXORUBICIN] | 333.8 | 25 nM | 48 | 12000 nM | 250 nM |  | 
2 | COc1cccc2c1C(=O)c1c(O)c3c(c(O)c1C2=O)C[C@@](O)(C(C)=O)C[C@@H]3O[C@H]1C[C@H](N)[C@H](O)[C@H](C)O1 [DAUNORUBICIN] | 295.7 | 40 nM | 42.8 | 3000 nM | 70 nM |  | 
3 | COc1cccc2c1C(=O)c1c(O)c3c(c(O)c1C2=O)C[C@@](O)(C(C)=O)C[C@@H]3OC1CC(Br)C(N=[N+]=[N-])C(C)O1 (some centres not stated) | 1.1 | 500 nM | 0.28 | 2000 nM | 7000 nM | 900 nM | 800 nM

Source: ChEMBL document CHEMBL1134999, “Synthesis and cytotoxic activity of a new potent daunomycinone derivative” (Bioorg Med Chem Lett, 2002)
